According to US20080004302A1, “Novel Compounds” (ASTRAZENECA AB, priority 2006, published 2008):
Structures can show the parent of a compound that is named as a salt. Where two headings read alike, the source gives them in different places. Each block holds one compound with its values, some of them ahead of it.

Experiments:
[1] = target: T1, human IGF1R (Homo sapiens, UniProt P08069); test: Inhibition of insulin-like growth factor-1 receptor phosphorylation in R+ cells; format: cell-based; settings: 30 nM IGF1, read-out: IGF cell class
T1 construct: expressed in transfected cells; host or cells: R+ cells (R- mouse fibroblasts transfected with human IGF1R)
T1 sequence (P08069 31-1367): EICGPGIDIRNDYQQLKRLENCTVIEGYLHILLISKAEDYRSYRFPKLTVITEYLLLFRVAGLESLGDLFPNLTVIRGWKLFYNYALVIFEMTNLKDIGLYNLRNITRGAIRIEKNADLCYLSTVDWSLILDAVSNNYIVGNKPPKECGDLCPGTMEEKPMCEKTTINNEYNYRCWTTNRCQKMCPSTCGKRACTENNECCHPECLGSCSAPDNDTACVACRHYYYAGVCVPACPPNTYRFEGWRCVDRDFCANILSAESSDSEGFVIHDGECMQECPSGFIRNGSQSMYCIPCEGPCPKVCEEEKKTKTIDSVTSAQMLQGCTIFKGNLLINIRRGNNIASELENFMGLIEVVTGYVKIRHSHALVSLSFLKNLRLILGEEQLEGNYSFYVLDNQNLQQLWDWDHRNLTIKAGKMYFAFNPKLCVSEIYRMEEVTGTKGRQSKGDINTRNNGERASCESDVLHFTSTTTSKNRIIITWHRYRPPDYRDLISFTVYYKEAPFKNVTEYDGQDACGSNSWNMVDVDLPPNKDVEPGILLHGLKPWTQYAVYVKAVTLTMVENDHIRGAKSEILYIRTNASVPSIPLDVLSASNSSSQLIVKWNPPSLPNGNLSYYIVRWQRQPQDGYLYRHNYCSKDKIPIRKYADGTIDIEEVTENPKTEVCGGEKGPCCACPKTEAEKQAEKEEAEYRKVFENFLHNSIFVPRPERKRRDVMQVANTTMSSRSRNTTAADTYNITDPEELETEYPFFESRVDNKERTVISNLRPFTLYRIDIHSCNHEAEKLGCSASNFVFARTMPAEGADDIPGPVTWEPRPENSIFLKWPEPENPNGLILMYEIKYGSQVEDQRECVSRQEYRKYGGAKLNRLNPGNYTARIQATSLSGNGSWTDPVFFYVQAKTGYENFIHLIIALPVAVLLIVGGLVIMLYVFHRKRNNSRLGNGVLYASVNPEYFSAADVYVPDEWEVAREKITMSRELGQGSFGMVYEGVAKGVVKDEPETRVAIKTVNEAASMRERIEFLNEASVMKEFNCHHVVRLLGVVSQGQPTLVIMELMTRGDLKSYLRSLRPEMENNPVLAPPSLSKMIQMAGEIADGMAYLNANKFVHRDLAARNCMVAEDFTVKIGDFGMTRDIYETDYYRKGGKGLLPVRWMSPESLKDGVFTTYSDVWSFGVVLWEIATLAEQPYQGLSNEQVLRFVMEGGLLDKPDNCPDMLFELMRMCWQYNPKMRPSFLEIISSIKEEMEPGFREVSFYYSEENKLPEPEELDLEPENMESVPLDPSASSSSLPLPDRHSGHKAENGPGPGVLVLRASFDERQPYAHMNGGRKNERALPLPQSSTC

[2] = target: FGFR1 kinase (Homo sapiens, UniProt P11362); test: Kinase assay (using Caliper technology); format: biochemical
Sequence of FGFR1 kinase (P11362 22-822): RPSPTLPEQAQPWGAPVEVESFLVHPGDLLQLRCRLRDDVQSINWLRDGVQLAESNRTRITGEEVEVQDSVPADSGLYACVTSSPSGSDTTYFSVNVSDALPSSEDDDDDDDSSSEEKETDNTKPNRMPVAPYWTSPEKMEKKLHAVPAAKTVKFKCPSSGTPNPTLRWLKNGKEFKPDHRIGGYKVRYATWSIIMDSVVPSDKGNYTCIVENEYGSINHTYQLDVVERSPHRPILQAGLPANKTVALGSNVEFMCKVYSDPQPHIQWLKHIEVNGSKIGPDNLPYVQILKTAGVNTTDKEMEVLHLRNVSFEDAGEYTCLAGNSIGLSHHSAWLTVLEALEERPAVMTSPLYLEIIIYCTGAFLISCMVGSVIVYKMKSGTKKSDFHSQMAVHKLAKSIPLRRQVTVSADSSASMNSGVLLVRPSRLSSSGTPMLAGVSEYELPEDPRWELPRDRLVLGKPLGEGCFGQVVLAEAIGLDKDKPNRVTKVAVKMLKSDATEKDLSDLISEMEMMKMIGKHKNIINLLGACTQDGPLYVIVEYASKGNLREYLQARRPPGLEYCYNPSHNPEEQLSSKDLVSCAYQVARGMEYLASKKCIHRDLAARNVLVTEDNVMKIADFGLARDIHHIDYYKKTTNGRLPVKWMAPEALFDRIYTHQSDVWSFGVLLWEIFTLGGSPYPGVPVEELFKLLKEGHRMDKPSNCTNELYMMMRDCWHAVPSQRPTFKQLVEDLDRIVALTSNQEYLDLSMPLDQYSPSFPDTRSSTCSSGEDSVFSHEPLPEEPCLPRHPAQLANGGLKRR
Summary of the method: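 Human FGFR1 kinase activity measured with a 13-mer fluorescently tagged FGFR1-specific peptide substrate; compounds serially diluted in 5% (v/v) DMSO. Reactions ran 1.5 h at room temperature, stopped with EDTA-containing HEPES pH 7.5 buffer. Phosphorylated and unphosphorylated peptide separated by microfluidic mobility shift.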

[3] = test system: Erk phosphorylation; test: Growth factor (bFGF) stimulated Erk phosphorylation in NIH 3T3 cells; settings: Mus musculus, NIH3T3, NIH 3T3 cells, 3 ng/ml bFGF
Text: These and other assays were used to evaluate the ability of a test compound to inhibit growth factor stimulated cellular signalling in mammalian cell lines. This was achieved by measuring the amount of receptor tyrosine kinase regulated Erk phosphorylation within a cell following compound treatment.
NIH 3T3 (ECACC, 93061524) cells were routinely passaged in DMEM (Gibco BRL, 41966) plus 10% foetal calf serum (FCS), 1% L-glutamine (Gibco BRL, 25030) to a confluence not greater than 80%. To undertake the assay, NIH 3T3's were seeded at 1×10^4 cells/well in DMEM plus 10% foetal calf serum, 1% L-glutamine in 96 well plates (Costar, 3904) and incubated at 37° C. (+5% CO2) in a humidified incubator. Once the cells had fully adhered (typically following 4-5 hours incubation) the media was removed from each well and the cells gently washed with 100μl warm serum free media. 90μl of serum free DMEM plus 1% L-glutamine was then added to each well and the plates were returned to a humidified 37° C. (+5% CO2) incubator. The following day, the plates were dosed with 10[l compound (diluted from 10 mM stock in DMSO using serum free DMEM) and the plates were returned to a humidified 37° C. (+5% CO2) incubator for one hour. NIH 3T3 cells were then stimulated with a final concentration of 3 ng/ml bFGF (Sigma, F029 1) for 20 minutes at 37° C. Following stimulation the cells were fixed by adding formaldehyde (4% v/v final concentration) and incubating at room temperature for 20 minutes. The fixative solution was then removed and the wells were washed twice with 100μl phosphate buffered saline (PBS/A) before permeabilising the cells by the addition of 50 μl/well 0.1% triton/PBS/A for 10 minutes at room temperature. The permeabilisation solution was then removed and the cells washed twice more with 100 μl/well PBS/A before the addition of 50 μl/well anti-phospho p44/42 (Cell Signalling Technology, 9106), diluted 1/500 with PBS/A plus 10% FCS. The anti-phospho p44/42 antibody recognises Erk phosphorylated at threonine 202 and tyrosine 204. […] Finally, the plates were washed three times with 100 μl/well PBS/A, leaving the final wash in the wells before sealing the plates. The plates were read at 350 nm and 488 nm using an Arrayscan (Cellomics).

[4] = target: T2, FGFR1 IIIc (Homo sapiens, UniProt P11362); test: Cell based inhibition of transiently expressed FGFR1 IIIc phosphorylation (Cos-1 cells)
T2 construct: host or cells: Cos-1
T2 sequence (P11362 22-822): as above
Method: This assay is designed to detect inhibitors of transiently expressed FGFR1 phosphorylation by antibody staining of fixed cells detected using ArrayScan technology.
To undertake the assay, Cos-1 cells were harvested at 90-95% confluence for cell transfection. For each 96-well plate, 24 ul Lipofectamine 2000 was added to 809 ul OptiMEM and incubated at room temperature for 5 minutes. […] Equal volumes of DNA and Lipofectamine 2000 were combined (DNA: Lipid=1:1.2 ratio) and incubated at room temperature for 20 minutes.
The harvested Cos-1 cells are counted using a coulter counter and diluted further with 1% FCS/DMEM to 2.5×10^5 cells/ml. For each 96-well, 8.33 ml cells were required. […] Media was removed from the wells using vacuum aspiration; cells were fixed by adding 50μl of 100% methanol to each well and incubated at room temperature for 20 minutes.
The plates were read on an Arrayscan (Cellomics).

[5] = target: T2, FGFR1 IIIc; test: Cell based inhibition of transiently expressed FGFR1 IIIc phosphorylation via use of ECHO technology (Cos-1 cells)
[6] = FGFR1 kinase, Caliper, upper bound of bin, read-out: IC50
[7] = Cos-1 cells, phospho-FGFR1, upper bound of bin, read-out: IC50
[8] = Cos-1 cells, phospho-FGFR1, ECHO dosing, upper bound of bin, read-out: IC50

Structure (SMILES): Cc1cc(CNc2nccc(Nc3cc(OCc4cccc(Cl)c4)[nH]n3)n2)on1 [Example 93, N′-[5-[(3-chlorophenyl)methoxy]-1H-pyrazol-3-yl]-N-[(3-methyl1,2-oxazol-5-yl)methyl]pyrimidine-2,4-diamine hydrochloride]
IC50 [1]: > 10000 nM
IC50 [2, 6]: < 1000 nM
IC50 [3]: < 200 nM
IC50 [4, 7]: < 1000 nM
IC50 [5, 8]: < 1000 nM

Structure (SMILES): Cc1cc(CNc2nccc(Nc3cc(OCc4cccc(C(F)(F)F)c4)[nH]n3)n2)on1 [Example 95, N-[(3-methyl1,2-oxazol-5-yl)methyl]-N′-[5-[[3-(trifluoromethyl)phenyl]methoxy]-1H-pyrazol-3-yl]pyrimidine-2,4-diamine hydrochloride]
IC50 [1]: > 10000 nM
IC50 [2, 6]: < 10000 nM
IC50 ([3]; upper bound of bin): < 10000 nM
IC50 [4, 7]: < 10000 nM

Structure (SMILES): COc1cc(CCc2cc(Nc3ccnc(NCc4cc(C)no4)n3)n[nH]2)cc(OC)c1 [Example 42, N′-[5-[2-(3,5-dimethoxyphenyl)ethyl]-2H-pyrazol-3-yl]-N-[(3-methyl1,2-oxazol-5-yl)methyl]pyrimidine-2,4-diamine]
IC50 [1]: 1000 to 10000 nM
IC50 [2]: < 200 nM
IC50 [3]: < 200 nM
IC50 [4]: < 200 nM
IC50 [5]: < 200 nM

Structure (SMILES): Cc1cc(CNc2nccc(Nc3cc(CCc4ccc5c(c4)OCO5)[nH]n3)n2)on1 [Example 54, N′-[5-(2-benzo [1,3]dioxol-5-ylethyl)-2H-pyrazol-3-yl]-N-[(3-methyl1,2-oxazol-5-yl)methyl]pyrimidine-2,4-diamine]
IC50 [1]: 1000 to 10000 nM
IC50 [2, 6]: < 1000 nM
IC50 ([3]; upper bound of bin): < 1000 nM
IC50 [4, 7]: < 1000 nM

Structure (SMILES): Cc1cc(CNc2nccc(Nc3cc(CCc4ccccc4OCc4ccccc4)[nH]n3)n2)on1 [Example 39, N-[(3-methyl1,2-oxazol-5-yl)methyl]-N′-[5-[2-(2-phenylmethoxyphenyl)ethyl]-1H-pyrazol-3-yl]pyrimidine-2,4-diamine hydrochloride]
IC50 [1]: > 10000 nM
IC50 [2, 6]: < 10000 nM
IC50 ([3]; upper bound of bin): < 1000 nM
IC50 [4, 7]: < 10000 nM

Structure (SMILES): CNC(=O)c1cccc(COc2cc(Nc3ccnc(NCc4cc(C)no4)n3)n[nH]2)c1 [Example 91, N-methyl-3-[[5-[[2-[(3-methyl1,2-oxazol-5-yl)methylamino]pyrimidin-4-yl]amino]-1H-pyrazol-3-yl]oxymethyl]benzamide]
IC50 [1]: > 10000 nM
IC50 [2, 6]: < 200 nM
IC50 [3]: < 200 nM
IC50 [4, 7]: < 1000 nM
IC50 [5, 8]: < 1000 nM

Structure (SMILES): Cc1cc(CNc2nccc(Nc3cc(OCc4cccc(F)c4)[nH]n3)n2)on1 [Example 94, N′-[5-[(3-fluorophenyl)methoxy]-1H-pyrazol-3-yl]-N-[(3-methyl1,2-oxazol-5-yl)methyl]pyrimidine-2,4-diamine hydrochloride]
IC50 [1]: > 10000 nM
IC50 [2, 6]: < 1000 nM
IC50 [3]: < 200 nM
IC50 [4, 7]: < 1000 nM
IC50 [5, 8]: < 200 nM

Structure (SMILES): Cc1cccc(CCc2cc(Nc3ccnc(NCc4cc(C)no4)n3)n[nH]2)c1 [Example 52, N-[(3-methyl1,2-oxazol-5-yl)methyl]-N′-[5-[2-(3-methylphenyl)ethyl]-1H-pyrazol-3-yl]pyrimidine-2,4-diamine hydrochloride]
IC50 [1]: > 10000 nM
IC50 [2, 6]: < 200 nM
IC50 [3]: < 200 nM
IC50 [4, 7]: < 1000 nM
IC50 [5, 8]: < 1000 nM

Structure (SMILES): Cc1cc(CNc2nccc(Nc3cc(CCc4cccc(O)c4)[nH]n3)n2)on1 [Example 41, 3-[2-[5-[[2-[(3-methyl1,2-oxazol-5-yl)methylamino]pyrimidin-4-yl]amino]-1H-pyrazol-3-yl]ethyl]phenol]
IC50 [1]: 1000 to 10000 nM
IC50 [2, 6]: < 200 nM
IC50 [3]: < 200 nM
IC50 [4, 7]: < 1000 nM
IC50 [5, 8]: < 1000 nM

Structure (SMILES): Cc1cc(CNc2nccc(Nc3cc(CCc4cccc(OC(F)(F)F)c4)[nH]n3)n2)on1 [Example 51, N-[(3-methyl1,2-oxazol-5-yl)methyl]-N′-[5-[2-[3-(trifluoromethoxy)phenyl]ethyl]-1H-pyrazol-3-yl]pyrimidine-2,4-diamine]
IC50 [1]: > 10000 nM
IC50 [2, 6]: < 10000 nM
IC50 ([3]; upper bound of bin): < 10000 nM
IC50 [4, 7]: < 10000 nM

Structure (SMILES): Cc1cc(CNc2nccc(Nc3cc(OCc4cccc(OS(C)(=O)=O)c4)[nH]n3)n2)on1 [Example 88, N-[(3-methyl1,2-oxazol-5-yl)methyl]-N′-[5-[(3-methylsulfonyloxyphenyl)methoxy]-2H-pyrazol-3-yl]pyrimidine-2,4-diamine]
IC50 [1]: > 10000 nM
IC50 [2, 6]: < 1000 nM
IC50 ([3]; upper bound of bin): < 10000 nM
IC50 [4, 7]: < 10000 nM

Structure (SMILES): COc1cc(COc2cc(Nc3ccnc(NCc4cc(C)no4)n3)n[nH]2)ccc1F [Example 100, N′-[5-[(4-fluoro-3-methoxy-phenyl)methoxy]-1H-pyrazol-3-yl]-N-[(3-methyl1,2-oxazol-5-yl)methyl]pyrimidine-2,4-diamine hydrochloride]
IC50 [1]: 1000 to 10000 nM
IC50 [2, 6]: < 10000 nM
IC50 ([3]; upper bound of bin): < 10000 nM
IC50 [4, 7]: < 10000 nM

The next lines start with results.

IC50 [1]: 1000 to 10000 nM
IC50 [2, 6]: < 200 nM
IC50 [4, 7]: < 1000 nM
IC50 [5, 8]: < 200 nM
Structure (SMILES): c1coc(CCc2cc(Nc3ccnc(NCc4cc(C5CC5)no4)n3)n[nH]2)c1 [Example 111, N-[(3-cyclopropyl1,2-oxazol-5-yl)methyl]-N′-[5-[2-(2-furyl)ethyl]-2H-pyrazol-3-yl]pyrimidine-2,4-diamine]
IC50 [3]: < 200 nM

IC50 [1]: 1000 to 10000 nM
IC50 [2, 6]: < 1000 nM
IC50 [4, 7]: < 1000 nM
Structure (SMILES): COc1ccc(CCc2cc(Nc3ccnc(NCc4cc(C)no4)n3)n[nH]2)c(C)c1 [Example 47, N′-[5-[2-(4-methoxy-2-methyl-phenyl)ethyl]-2H-pyrazol-3-yl]-N-[(3-methyl1,2-oxazol-5-yl)methyl]pyrimidine-2,4-diamine]
IC50 ([3]; upper bound of bin): < 1000 nM

IC50 [1]: 1000 to 10000 nM
IC50 [4, 7]: < 200 nM
IC50 [5, 8]: < 200 nM
Structure (SMILES): COC(=O)c1cccc(COc2cc(Nc3ccnc(NCc4cc(C)no4)n3)n[nH]2)c1 [Example 97, Methyl 3-[[5-[[2-[(3-methyl1,2-oxazol-5-yl)methylamino]pyrimidin-4-yl]amino]-1H-pyrazol-3-yl]oxymethyl]benzoate hydrochloride]
IC50 [3]: < 200 nM

IC50 [1]: 1000 to 10000 nM
IC50 [2, 6]: < 200 nM
IC50 [4, 7]: < 10000 nM
Structure (SMILES): c1cnc(-c2cc(CNc3nccc(Nc4cc(CCc5ccco5)[nH]n4)n3)on2)nc1 [Example 113, N′-[5-[2-(2-furyl)ethyl]-2H-pyrazol-3-yl]-N-[(3-pyrimidin-2-yl1,2-oxazol-5-yl)methyl]pyrimidine-2,4-diamine]
IC50 ([3]; upper bound of bin): < 10000 nM

IC50 [1]: 1000 to 10000 nM
IC50 [2, 6]: < 200 nM
IC50 [4, 7]: < 1000 nM
Structure (SMILES): Cc1cc(CNc2nccc(Nc3cc(CCc4ccoc4)[nH]n3)n2)on1 [Example 110, N′-[5-[2-(3-furyl)ethyl]-1H-pyrazol-3-yl]-N-[(3-methyl1,2-oxazol-5-yl)methyl]pyrimidine-2,4-diamine]
IC50 ([3]; upper bound of bin): < 1000 nM

IC50 [1]: 1000 to 10000 nM
IC50 [2, 6]: < 1000 nM
IC50 [4, 7]: < 10000 nM
Structure (SMILES): COCCOc1cccc(CCc2cc(Nc3ccnc(NCc4cc(C)no4)n3)n[nH]2)c1 [Example 40, N′-[5-[2-[3-(2-methoxyethoxy)phenyl]ethyl]-2H-pyrazol-3-yl]-N-[(3-methyl1,2-oxazol-5-yl)methyl]pyrimidine-2,4-diamine]
IC50 ([3]; upper bound of bin): < 1000 nM

IC50 [1]: 100 to 1000 nM
IC50 [2, 6]: < 10000 nM
IC50 [4, 7]: < 10000 nM
Structure (SMILES): Cc1cc(CNc2nccc(Nc3cc(CCc4cccc(OCc5ccccc5)c4)n[nH]3)n2)on1 [Example 38, N-[(3-methyl1,2-oxazol-5-yl)methyl]-N′-[5-[2-(3-phenylmethoxyphenyl)ethyl]-2H-pyrazol-3-yl]pyrimidine-2,4-diamine]
IC50 ([3]; upper bound of bin): < 1000 nM
